Laboratory results published in US20230242551A1, “ISOTOPE-SUBSTITUTED SPIRO AROMATIC RING COMPOUND AND APPLICATION THEREOF” (ETERN BIOPHARMA (SHANGHAI) CO., LTD., priority 2020, published 2023).

Experiments:
[1] = Liver microsomal metabolic stability test (human); type: in vitro ADME; conditions: NADPH, 37° C.; for half-life at 1 µM / microsomal CLint at 1 µM: pH 7.4; for half-life at 1 µM: read-out: Human hepatic microsomal metabolic half-life; for microsomal CLint at 1 µM: read-out: Intrinsic clearance of human hepatic microsomes in body
Method: (§1) 1) Preparation of stock and working solutions of the compound: An appropriate amount of the compound was weighed and dissolved in DMSO to give a 10 mM stock solution, and the stock solution was further diluted with ACN to give a 100 µM working solution.
Each positive control standard was dissolved separately with DMSO to obtain a 10 mM stock solution and further diluted with ACN to obtain a 100 µM working solution.
(§2) 73.21 g of dipotassium hydrogen phosphate trihydrate and 10.78 g of potassium dihydrogen phosphate were dissolved in 4000 mL of ultrapure water. The pH of the solution was adjusted to 7.40 ± 0.10 with 10% phosphoric acid or 1 M potassium hydroxide and the final concentration was 100 mM.
Human liver microsomes (20 mg/mL) were diluted with the phosphate buffer solution to obtain 0.56 mg/mL of a liver microsomal working solution.
(§3) NADPH was weighed and dissolved in the phosphate buffer solution to obtain a 10 mM solution.
1) Preparation of Blank: 54 µL of human liver microsomal working solution was transferred to a blank sample plate, then added with 6 µL of NADPH working solution, and finally added with 180 µL of ACN solution containing 200 ng/mL of tolbutamide and labetalol (internal standard) to precipitate the protein.
445 µL of human liver microsomal working solution (MWS) was added to the cofactor-free incubation sample plate, pre-incubated at 37° C. for 10 min, and then fully mixed after the addition of 5 µL of working solution of positive control or the compound to be tested.
50 µL of phosphate buffer solution was added to the above incubation sample plate, fully mixed and incubated at 37° C. for 60 min.
After the incubation is complete, 60 µL of incubation solution was taken into a pellet plate, and then added with 180 µL of ACN solution containing 200 ng/mL of tolbutamide and labetalol (internal standard) to precipitate the protein.
(§4) 445 µL of human/rat liver microsomal working solution (MWS) was added to the incubation sample plate, pre-incubated at 37° C. for 10 min, and then fully mixed after the addition of 5 µL of working solution of positive control or the compound to be tested.
(§5) 54 µL of the above intermediate working solution was transferred to the zero-time sample plate (T0), then added with 180 µL of ACN solution containing 200 ng/mL tolubutamide and labetalol (internal standard) to precipitate the protein, and finally added with 6 µL of NADPH working solution.
(§6) 44 µL of NADPH working solution was added to 396 µL of microsomal working solution containing positive control or the compound to be tested (remaining solution after the operation of steps (1) and (2)) and incubated at 37° C. At the time points of 5, 15, 30, 45, and 60 min, 60 uL of incubation solution was taken and added to 180 µL of ACN solution containing 200 ng/mL of tolubutamide and labetalol (internal standard) to precipitate the protein.
(§7) Centrifuged collected supernatants were analyzed with LC-MS/MS after appropriate dilution.
(§8) The peak area ratio of the analyte to the internal standard was used to calculate the relative percentage content of the compound after incubation and to perform exponential function fitting. The calculation formula was as follows: […]
(§9) wherein k was the rate constant obtained by linear regression taking the concentration logarithm as the ordinate and the incubation time as the absciss.
(§10) wherein CLint was the Intrinsic clearance.

[2] = Liver microsomal metabolic stability test (rat); type: in vitro ADME; conditions: NADPH, 37° C.
Method: as §1, §2, §3, §4, §5, §6, §7, §8, §9, §10

[3] = human liver microsomes, 0-60 min

SMILES	half-life at 1 µM [1, 3]	microsomal CLint at 1 µM ([1]; human liver microsomes)	half-life at 1 µM ([2]; pH 7.4, rat liver microsomes, 0-60 min, read-out: Rat hepatic microsomal metabolic half-life)	microsomal CLint at 1 µM ([2]; pH 7.4, rat liver microsomes, read-out: Intrinsic clearance of rat hepatic microsomes in body)	Intrinsic clearance of human hepatic microsomes in body [1]	Human hepatic microsomal metabolic half-life [1, 3]	Intrinsic clearance of rat hepatic microsomes in body [2]	Rat hepatic microsomal metabolic half-life ([2]; rat liver microsomes, 0-60 min)
[2H][C@@]1(N)c2cccnc2CC12CCN(c1ncc(Sc3ccnc(N)c3Cl)c3nccn13)CC2 [Compound 10]	1.2 h	19 µL/min/mg	2.03 h	11.4 µL/min/mg	–	–	–	–
[2H]C1([2H])c2ncccc2[C@@]([2H])(N)C12CCN(c1ncc(Sc3ccnc(N)c3Cl)c3nccn13)CC2 [Compound 12]	1.28 h	18 µL/min/mg	–	–	–	–	–	–
Nc1nccc(Sc2cnc(N3CCC4(CC3)Cc3ncccc3[C@H]4N)n3ccnc23)c1Cl [Compound 1]	–	–	–	–	26 µL/min/mg	0.9 h	19 µL/min/mg	1.17 h
